What was measured:
STAT6 protein = target: T1, STAT6 protein (Homo sapiens, UniProt P42226); assay: Fluorescence polarization (FP) binding assay, STAT6; conditions: FP competition, 5 nM fluorescein-labeled tracer, 200 nM protein, PBS pH7.4; read-out: Binding STAT6
T1 sequence (P42226 1-847): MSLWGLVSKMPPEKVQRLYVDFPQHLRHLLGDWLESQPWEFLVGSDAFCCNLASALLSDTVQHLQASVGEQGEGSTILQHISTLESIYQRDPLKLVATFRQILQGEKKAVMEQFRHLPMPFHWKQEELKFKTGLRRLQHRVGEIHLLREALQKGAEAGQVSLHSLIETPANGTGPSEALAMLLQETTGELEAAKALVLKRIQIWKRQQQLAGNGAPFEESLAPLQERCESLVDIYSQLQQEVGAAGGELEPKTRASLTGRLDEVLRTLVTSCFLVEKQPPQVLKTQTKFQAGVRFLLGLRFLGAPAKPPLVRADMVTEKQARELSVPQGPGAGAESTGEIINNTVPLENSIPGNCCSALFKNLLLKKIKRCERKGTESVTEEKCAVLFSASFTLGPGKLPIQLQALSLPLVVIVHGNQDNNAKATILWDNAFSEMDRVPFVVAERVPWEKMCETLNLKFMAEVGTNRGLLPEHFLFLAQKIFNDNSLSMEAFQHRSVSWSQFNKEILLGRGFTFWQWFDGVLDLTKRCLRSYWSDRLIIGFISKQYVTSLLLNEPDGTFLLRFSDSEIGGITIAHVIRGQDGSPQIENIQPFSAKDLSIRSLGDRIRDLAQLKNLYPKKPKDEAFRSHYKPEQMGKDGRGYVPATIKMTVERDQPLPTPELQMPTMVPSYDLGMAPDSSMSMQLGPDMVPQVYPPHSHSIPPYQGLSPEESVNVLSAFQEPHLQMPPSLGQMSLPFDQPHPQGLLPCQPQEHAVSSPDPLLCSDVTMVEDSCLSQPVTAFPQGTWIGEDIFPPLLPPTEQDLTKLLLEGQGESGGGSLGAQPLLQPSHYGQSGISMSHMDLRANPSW
How it was run: (§1)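 Each well holds 200 nM STAT5 and/or STAT6 with 5 nM fluorescent tracer in PBS pH 7.4 (0.01% BGG, 0.01% Tween-20, 2 mM DTT). Binding reaches equilibrium over 1 h at room temperature after brief shaking, and polarization data are fitted nonlinearly.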

STAT5A = target: T2, STAT5A (Homo sapiens, UniProt P42229); assay: Fluorescence polarization (FP) binding assay, STAT5A; conditions: FP competition, 5 nM fluorescein-labeled tracer, 200 nM protein, PBS pH7.4
T2 sequence (P42229 1-794): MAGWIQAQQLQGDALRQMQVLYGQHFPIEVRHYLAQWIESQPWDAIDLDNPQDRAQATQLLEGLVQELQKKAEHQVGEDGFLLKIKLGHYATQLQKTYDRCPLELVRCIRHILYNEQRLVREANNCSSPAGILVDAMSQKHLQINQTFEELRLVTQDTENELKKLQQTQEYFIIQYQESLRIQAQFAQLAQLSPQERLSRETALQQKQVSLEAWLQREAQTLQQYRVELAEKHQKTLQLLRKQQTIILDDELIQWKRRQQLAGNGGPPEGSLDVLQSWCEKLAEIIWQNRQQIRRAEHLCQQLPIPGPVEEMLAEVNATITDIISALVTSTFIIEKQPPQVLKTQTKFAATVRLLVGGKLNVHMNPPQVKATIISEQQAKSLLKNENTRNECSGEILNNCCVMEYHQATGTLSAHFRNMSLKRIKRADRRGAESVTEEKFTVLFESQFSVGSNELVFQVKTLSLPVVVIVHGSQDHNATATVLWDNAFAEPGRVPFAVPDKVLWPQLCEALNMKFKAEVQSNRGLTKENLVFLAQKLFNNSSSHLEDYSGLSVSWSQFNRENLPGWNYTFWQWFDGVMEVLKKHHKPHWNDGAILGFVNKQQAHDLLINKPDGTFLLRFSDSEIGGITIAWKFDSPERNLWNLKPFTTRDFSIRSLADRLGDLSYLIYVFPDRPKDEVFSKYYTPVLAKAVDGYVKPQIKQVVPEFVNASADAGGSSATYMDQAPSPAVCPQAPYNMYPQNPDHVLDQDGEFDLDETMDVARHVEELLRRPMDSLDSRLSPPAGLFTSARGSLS
How it was run: as §1

SMILES | Ki (STAT6 protein) [nM] | Ki (STAT5A) [nM]
CC(C)(C)[C@H](NC(=O)c1cc2cc(C(F)(F)P(=O)(O)O)ccc2s1)C(=O)N1CCCC[C@H]1C(=O)N1CCO[C@H](c2ccccc2)C1 [Compound 179, ((2-(((S)-3,3-dimethyl-1-oxo-1-((S)-2-((R)-2-phenylmorpholine-4-carbonyl)piperidin-1-yl)butan-2-yl)carbamoyl)benzo[b]thiophen-5-yl)difluoromethyl)phosphonic acid] | 100 to 1000 | 1000 to 10000
CC(C)(C)[C@H](NC(=O)c1cc2cc(C(F)(F)P(=O)(O)O)ccc2s1)C(=O)N1CCCC[C@H]1C(=O)N1CCC[C@H](c2ccccc2)C1 [Compound 180, ((2-(((S)-3,3-dimethyl-1-oxo-1-((S)-2-((R)-3-phenylpiperidine-1-carbonyl)piperidin-1-yl)butan-2-yl)carbamoyl)benzo[b]thiophen-5-yl)difluoromethyl)phosphonic acid] | 100 to 1000 | 1000 to 10000
CC(C)(C)[C@H](NC(=O)c1cc2cc(C(F)(F)P(=O)(O)O)ccc2s1)C(=O)N1CCCC[C@H]1C(=O)N1Cc2ccccc2C1 [Compound 181, (difluoro(2-(((S)-1-((S)-2-(isoindoline-2-carbonyl)piperidin-1-yl)-3,3-dimethyl-1-oxobutan-2-yl)carbamoyl)benzo[b]thiophen-5-yl)methyl)phosphonic acid] | > 10000 | > 10000
CC(C)(C)[C@H](NC(=O)c1cc2cc(C(F)(F)P(=O)(O)O)ccc2s1)C(=O)N1CCCC[C@H]1C(=O)Nc1ncc(-c2ccccc2)s1 [Compound 182, ((2-(((S)-3,3-dimethyl-1-oxo-1-((S)-2-((5-phenylthiazol-2-yl)carbamoyl)piperidin-1-yl)butan-2-yl)carbamoyl)benzo[b]thiophen-5-yl)difluoromethyl)phosphonic acid] | 1000 to 10000 | 100 to 1000
CC(C)(C)[C@H](NC(=O)c1cc2cc(C(F)(F)P(=O)(O)O)ccc2s1)C(=O)N1CCCCC[C@H]1C(=O)N1CCO[C@H](c2ccccc2)C1 [Compound 183, ((2-(((S)-3,3-dimethyl-1-oxo-1-((S)-2-((R)-2-phenylmorpholine-4-carbonyl)azepan-1-yl)butan-2-yl)carbamoyl)benzo[b]thiophen-5-yl)difluoromethyl)phosphonic acid] | 100 to 1000 | 1000 to 10000
CC(C)(C)[C@H](NC(=O)c1cc2cc(C(F)(F)P(=O)(O)O)ccc2s1)C(=O)N1CCCCC[C@H]1C(=O)N1CCC[C@H](c2ccccc2)C1 [Compound 184, ((2-(((S)-3,3-dimethyl-1-oxo-1-((S)-2-((R)-3-phenylpiperidine-1-carbonyl)azepan-1-yl)butan-2-yl)carbamoyl)benzo[b]thiophen-5-yl)difluoromethyl)phosphonic acid] | 100 to 1000 | 1000 to 10000
CC(C)(C)[C@H](NC(=O)c1cc2cc(C(F)(F)P(=O)(O)O)ccc2s1)C(=O)N1CCCCC[C@H]1C(=O)N1CC[C@H](c2ccccc2)C1 [Compound 185, ((2-(((S)-3,3-dimethyl-1-oxo-1-((S)-2-((R)-3-phenylpyrrolidine-1-carbonyl)azepan-1-yl)butan-2-yl)carbamoyl)benzo[b]thiophen-5-yl)difluoromethyl)phosphonic acid] | 1000 to 10000 | 1000 to 10000
CC(C)(C)[C@H](NC(=O)c1cc2cc(C(F)(F)P(=O)(O)O)ccc2s1)C(=O)N1CCCCC[C@H]1C(=O)N1CC[C@@H](c2ccccc2)C1 [Compound 186, ((2-(((S)-3,3-dimethyl-1-oxo-1-((S)-2-((S)-3-phenylpyrrolidine-1-carbonyl)azepan-1-yl)butan-2-yl)carbamoyl)benzo[b]thiophen-5-yl)difluoromethyl)phosphonic acid] | > 10000 | 1000 to 10000
CC(C)(C)[C@H](NC(=O)c1cc2cc(C(F)(F)P(=O)(O)O)ccc2s1)C(=O)N1CCCCC[C@H]1C(=O)N1Cc2ccccc2C1 [Compound 187, (difluoro(2-(((S)-1-((S)-2-(isoindoline-2-carbonyl)azepan-1-yl)-3,3-dimethyl-1-oxobutan-2-yl)carbamoyl)benzo[b]thiophen-5-yl)methyl)phosphonic acid] | 1000 to 10000 | > 10000
CC(C)(C)[C@H](NC(=O)c1cc2cc(C(F)(F)P(=O)(O)O)ccc2s1)C(=O)N1CCCCC[C@H]1C(=O)Nc1ncc(-c2ccccc2)s1 [Compound 188, ((2-(((S)-3,3-dimethyl-1-oxo-1-((S)-2-((5-phenylthiazol-2-yl)carbamoyl)azepan-1-yl)butan-2-yl)carbamoyl)benzo[b]thiophen-5-yl)difluoromethyl)phosphonic acid] | 1000 to 10000 | 100 to 1000
CC(C)(C)[C@H](NC(=O)c1cc2cc(C(F)(F)P(=O)(O)O)ccc2s1)C(=O)N1Cc2ccccc2CC1C(=O)N1CCO[C@H](c2ccccc2)C1 (stereo partly drawn) [Compound 189, ((2-(((2S)-3,3-dimethyl-1-oxo-1-(3-((R)-2-phenylmorpholine-4-carbonyl)-3,4-dihydroisoquinolin-2(1H)-yl)butan-2-yl)carbamoyl)benzo[b]thiophen-5-yl)difluoromethyl)phosphonic acid] | 100 to 1000 | 1000 to 10000
CC(C)(C)[C@H](NC(=O)c1cc2cc(C(F)(F)P(=O)(O)O)ccc2s1)C(=O)N1Cc2ccccc2CC1C(=O)N1CCC[C@H](c2ccccc2)C1 (stereo partly drawn) [Compound 190, ((2-(((2S)-3,3-dimethyl-1-oxo-1-(3-((R)-3-phenylpiperidine-1-carbonyl)-3,4-dihydroisoquinolin-2(1H)-yl)butan-2-yl)carbamoyl)benzo[b]thiophen-5-yl)difluoromethyl)phosphonic acid] | 100 to 1000 | 1000 to 10000
CC(C)(C)[C@H](NC(=O)c1cc2cc(C(F)(F)P(=O)(O)O)ccc2s1)C(=O)N1Cc2ccccc2CC1C(=O)N1CC[C@H](c2ccccc2)C1 (stereo partly drawn) [Compound 191, ((2-(((2S)-3,3-dimethyl-1-oxo-1-(3-((R)-3-phenylpyrrolidine-1-carbonyl)-3,4-dihydroisoquinolin-2(1H)-yl)butan-2-yl)carbamoyl)benzo[b]thiophen-5-yl)difluoromethyl)phosphonic acid] | 1000 to 10000 | > 10000
CC(C)(C)[C@H](NC(=O)c1cc2cc(C(F)(F)P(=O)(O)O)ccc2s1)C(=O)N1Cc2ccccc2CC1C(=O)N1CC[C@@H](c2ccccc2)C1 (stereo partly drawn) [Compound 192, ((2-(((2S)-3,3-dimethyl-1-oxo-1-(3-((S)-3-phenylpyrrolidine-1-carbonyl)-3,4-dihydroisoquinolin-2(1H)-yl)butan-2-yl)carbamoyl)benzo[b]thiophen-5-yl)difluoromethyl)phosphonic acid] | > 10000 | > 10000
CC(C)(C)[C@H](NC(=O)c1cc2cc(C(F)(F)P(=O)(O)O)ccc2s1)C(=O)N1Cc2ccccc2CC1C(=O)N1Cc2ccccc2C1 (stereo partly drawn) [Compound 193, (difluoro(2-(((2S)-1-(3-(isoindoline-2-carbonyl)-3,4-dihydroisoquinolin-2(1H)-yl)-3,3-dimethyl-1-oxobutan-2-yl)carbamoyl)benzo[b]thiophen-5-yl)methyl)phosphonic acid] | > 10000 | > 10000
CC(C)(C)[C@H](NC(=O)c1cc2cc(C(F)(F)P(=O)(O)O)ccc2s1)C(=O)N1Cc2ccccc2CC1C(=O)Nc1ncc(-c2ccccc2)s1 (stereo partly drawn) [Compound 194, ((2-(((2S)-3,3-dimethyl-1-oxo-1-(3-((5-phenylthiazol-2-yl)carbamoyl)-3,4-dihydroisoquinolin-2(1H)-yl)butan-2-yl)carbamoyl)benzo[b]thiophen-5-yl)difluoromethyl)phosphonic acid] | 1000 to 10000 | 100 to 1000

From patent publication US20230295200A1 (REGENTS OF THE UNIVERSITY OF MICHIGAN, priority 2022, published 2023)
